Source: US11306078B2, “Piperidine CXCR7 receptor modulators” (IDORSIA PHARMACEUTICALS LTD., priority 2016, dated 2022)

Target: human chemokine receptor CXCR7 (Homo sapiens (Human), UniProt P25106)
Assay: Tango CXCR7-bla U2OS beta-arrestin recruitment assay (beta-lactamase reporter, FRET), antagonism of CXCL12/SDF1-α;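 note: compounds preincubated 15 min before CXCL12 addition, then 22 h at 37 °C, FRET emission ratio read with CCF4-AM substrate after 2 h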
Type: cell-based
Settings: antagonistic effect on CXCR7; Tango CXCR7-bla U2OS cells, CXCL12/SDF1-α at its EC80

Chain of human chemokine receptor CXCR7 (P25106 whole entry): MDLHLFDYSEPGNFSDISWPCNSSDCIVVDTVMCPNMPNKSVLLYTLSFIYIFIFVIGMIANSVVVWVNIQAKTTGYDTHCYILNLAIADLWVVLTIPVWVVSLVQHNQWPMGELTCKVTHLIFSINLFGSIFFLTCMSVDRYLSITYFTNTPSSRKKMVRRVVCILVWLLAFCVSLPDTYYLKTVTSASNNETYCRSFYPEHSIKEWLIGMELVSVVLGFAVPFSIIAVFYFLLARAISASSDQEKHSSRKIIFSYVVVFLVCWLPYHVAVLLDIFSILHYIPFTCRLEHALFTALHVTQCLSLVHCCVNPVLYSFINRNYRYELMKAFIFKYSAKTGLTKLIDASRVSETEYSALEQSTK

Structure (SMILES)	IC50
C#CC(C)NC(=O)[C@H]1CN(C2CCCC2)CC[C@@H]1NC(=O)c1cc(-c2ccc(F)cc2F)on1 (stereo partly shown) [Example 4.039]	0.393 µM
CC(NC(=O)[C@H]1CN(C2CCCC2)CC[C@@H]1NC(=O)c1cc(-c2ccc(F)cc2F)on1)c1ccn[nH]1 (stereo partly shown) [Example 4.041]	0.096 µM
C[C@@H](NC(=O)[C@H]1CN(C2CCCC2)CC[C@@H]1NC(=O)c1cc(-c2ccc(F)cc2F)on1)c1cccnc1 [Example 4.042]	0.074 µM
Cn1cc(C(C)(C)NC(=O)[C@H]2CN(CC3CC3)CC[C@@H]2NC(=O)c2cc(-c3ccc(F)cc3F)on2)cn1 [Example 4.043]	0.158 µM
Cc1nc(C(C)(C)NC(=O)[C@H]2CN(CC3CC3)CC[C@@H]2NC(=O)c2cc(-c3ccc(F)cc3F)on2)no1 [Example 4.044]	0.075 µM
O=C(N[C@H]1CCN(CC2CC2)C[C@@H]1C(=O)NC1(C2CC2)CC1)c1cc(-c2ccc(F)cc2F)on1 [Example 4.045]	0.164 µM
CC(NC(=O)[C@H]1CN(CC2CC2)CC[C@@H]1NC(=O)c1cc(-c2ccc(F)cc2F)on1)C1CCCO1 (stereo partly shown) [Example 4.046]	0.29 µM
CC(NC(=O)[C@H]1CN(CC2CC2)CC[C@@H]1NC(=O)c1cc(-c2ccc(F)cc2F)on1)c1nc[nH]n1 (stereo partly shown) [Example 4.047]	0.318 µM
C#CC(C)NC(=O)[C@H]1CN(CC2CC2)CC[C@@H]1NC(=O)c1cc(-c2ccc(F)cc2F)on1 (stereo partly shown) [Example 4.048]	0.247 µM
CC(NC(=O)[C@H]1CN(CC2CC2)CC[C@@H]1NC(=O)c1cc(-c2ccc(F)cc2F)on1)c1ccon1 (stereo partly shown) [Example 4.049]	0.148 µM
N#CCN1CC[C@H](NC(=O)c2cc(-c3ccc(F)cc3F)on2)[C@@H](C(=O)NC2(c3ncccn3)CC2)C1 [Example 4.051]	0.356 µM
O=C(N[C@H]1CCN(CC2CC2)C[C@@H]1C(=O)NC1(c2ccccc2)CC1)c1cc(-c2ccc(F)cc2F)on1 [Example 4.053]	0.001 µM
O=C(N[C@H]1CCN(CC2CC2)C[C@@H]1C(=O)NC1(c2ncccc2F)CC1)c1cc(-c2ccc(F)cc2F)on1 [Example 4.054]	0.001 µM
O=C(N[C@H]1CCN(CC2CC2)C[C@@H]1C(=O)NC1(c2ccncn2)CC1)c1cc(-c2ccc(F)cc2F)on1 [Example 4.055]	0.016 µM
CCOC(=O)C1(NC(=O)[C@H]2CN(CC3CC3)CC[C@@H]2NC(=O)c2cc(-c3ccc(F)cc3F)on2)CC1 [Example 4.056]	0.064 µM
O=C(N[C@H]1CCN(CC2CC2)C[C@@H]1C(=O)NC1(c2ccccc2)CCC1)c1cc(-c2ccc(F)cc2F)on1 [Example 4.057]	0.013 µM
O=C(N[C@H]1CCN(CC2CC2)C[C@@H]1C(=O)N(CCF)Cc1ccccc1)c1cc(-c2ccc(F)cc2F)on1 [Example 4.058]	0.09 µM
COc1cccc(C2(NC(=O)[C@H]3CN(CC4CC4)CC[C@@H]3NC(=O)c3cc(-c4ccc(F)cc4F)on3)CC2)c1 [Example 4.059]	0.061 µM
O=C(N[C@H]1CCN(CC2CC2)C[C@@H]1C(=O)NC1(c2ccccc2F)CC1)c1cc(-c2ccc(F)cc2F)on1 [Example 4.061]	0.001 µM
O=C(N[C@H]1CCN(CC2CC2)C[C@@H]1C(=O)NC1(c2ccc(F)cc2)CC1)c1cc(-c2ccc(F)cc2F)on1 [Example 4.062]	0.141 µM
O=C(N[C@H]1CCN(CC2CC2)C[C@@H]1C(=O)NC1(c2cccc(F)c2)CC1)c1cc(-c2ccc(F)cc2F)on1 [Example 4.063]	0.142 µM
Cc1cccc(CNC(=O)[C@H]2CN(CC3CC3)CC[C@@H]2NC(=O)c2cc(-c3ccc(F)cc3F)on2)n1 [Example 4.064]	0.753 µM
O=C(N[C@H]1CCN(CC2CC2)C[C@@H]1C(=O)NCCc1ccccc1Cl)c1cc(-c2ccc(F)cc2F)on1 [Example 4.065]	0.014 µM
CCN(CC)C(=O)[C@H]1CN(CC2CC2)CC[C@@H]1NC(=O)c1cc(-c2ccc(F)cc2F)on1 [Example 4.066]	0.32 µM

Second part, the molecule after the results:

IC50	Structure (SMILES)
0.02 µM	O=C(N[C@H]1CCN(CC2CC2)C[C@@H]1C(=O)N1CC[C@@H]1c1ccccc1)c1cc(-c2ccc(F)cc2F)on1 [Example 4.067a]
0.002 µM	O=C(N[C@@H]1CCN(CC2CC2)C[C@H]1C(=O)N1CC[C@@H]1c1ccccc1)c1cc(-c2ccc(F)cc2F)on1 [Example 4.067b]
0.001 µM	O=C(N[C@H]1CCN(CC2CC2)C[C@@H]1C(=O)NC1(c2cccc(Cl)c2)CC1)c1cc(-c2ccc(F)cc2F)on1 [Example 4.068]
0.153 µM	CON(C)C(=O)[C@@H]1CN(CC2CC2)CC[C@H]1NC(=O)c1cc(-c2ccc(F)cc2F)on1 [Example 4.069]
0.212 µM	CCN(CC)C(=O)[C@@H]1CN(CC2CC2)CC[C@H]1NC(=O)c1cc(-c2ccc(F)cc2F)on1 [Example 4.071]
0.016 µM	COc1ccccc1C(C)NC(=O)[C@H]1CN(CC2CC2)CC[C@@H]1NC(=O)c1cc(-c2ccc(F)cc2F)on1 (stereo partly shown) [Example 4.072]
0.173 µM	CCOC(=O)[C@H](NC(=O)[C@H]1CN(CC2CC2)CCC1NC(=O)c1cc(-c2ccc(F)cc2F)on1)c1ccccc1 (stereo partly shown) [Example 4.073]
0.027 µM	COc1ccccc1C1(NC(=O)[C@H]2CN(CC3CC3)CC[C@@H]2NC(=O)c2cc(-c3ccc(F)cc3F)on2)CC1 [Example 4.074]
0.002 µM	C[C@@H](NC(=O)[C@H]1CN(CC2CC2)CC[C@@H]1NC(=O)c1cc(-c2ccc(F)cc2F)on1)c1cccc(Br)c1 [Example 4.075]
0.097 µM	O=C(N[C@H]1CCN(CC2CC2)C[C@@H]1C(=O)NC1(c2ccccc2O)CC1)c1cc(-c2ccc(F)cc2F)on1 [Example 4.076]
0.004 µM	O=C(N[C@H]1CCN(CC2CC2)C[C@@H]1C(=O)NC1(c2nccc[n+]2[O-])CC1)c1cc(-c2ccc(F)cc2F)on1 [Example 4.077]
0.064 µM	O=C(NC1CCN(CC2CC2)CC1C(=O)N1CCCC1c1ncccn1)c1cc(-c2ccc(F)cc2F)on1 (stereo not shown) [Example 4.078]
0.015 µM	O=C(N[C@H]1CCN(CC2CC2)C[C@@H]1C(=O)N1CCCC1c1ncccn1)c1cc(-c2ccc(F)cc2F)on1 (stereo partly shown) [Example 4.078b]
0.186 µM	O=C(N[C@H]1CCN(CC2CC2)C[C@@H]1C(=O)N1CC[C@@H]1c1ncccn1)c1cc(-c2ccc(F)cc2F)on1 [Example 4.079a]
0.018 µM	O=C(N[C@@H]1CCN(CC2CC2)C[C@H]1C(=O)N1CC[C@@H]1c1ncccn1)c1cc(-c2ccc(F)cc2F)on1 [Example 4.079b]
0.851 µM	CC(NC(=O)[C@H]1CN(CC2CC2)CC[C@@H]1NC(=O)c1cc(-c2ccc(F)cc2F)on1)c1ncccn1 (stereo partly shown) [Example 4.080a]
0.015 µM	CC(NC(=O)[C@@H]1CN(CC2CC2)CC[C@H]1NC(=O)c1cc(-c2ccc(F)cc2F)on1)c1ncccn1 (stereo partly shown) [Example 4.080b]
0.426 µM	O=C(N[C@H]1CCN(CC2CC2)C[C@@H]1C(=O)NC1(c2cncnc2)CC1)c1cc(-c2ccc(F)cc2F)on1 [Example 4.081]
0.02 µM	O=C(N[C@H]1CCN(C2CCC2)C[C@@H]1C(=O)NC1(c2ncccc2F)CC1)c1cc(-c2ccc(F)cc2F)on1 [Example 4.082]
0.011 µM	CC(C)(NC(=O)[C@H]1CN(C2CCC2)CC[C@@H]1NC(=O)c1cc(-c2ccc(F)cc2F)on1)c1ncccn1 [Example 4.083]
0.232 µM	C[C@@H](NC(=O)[C@H]1CN(C2CCC2)CC[C@@H]1NC(=O)c1cc(-c2ccc(F)cc2F)on1)c1ncccn1 [Example 4.084]
0.077 µM	C[C@@H](NC(=O)[C@H]1CN(C2CCC2)CC[C@@H]1NC(=O)c1cc(-c2ccc(F)cc2F)on1)c1ncccn1 [Example 4.084b]
